In US10800752B2, “Substituted naphtho[2,3-b]furans as water-soluble prodrugs for preventing and/or treating cancer” (BOSTON BIOMEDICAL, INC., priority 2015, dated 2020):
Counter-ions that a name gives are not always drawn.

Tests used:
[1] = Evaluation of a conversion rate to 2-acetylnaphtho[2,3-b]furan-4,9-dione in human plasma; type: in vitro ADME; conditions: Human plasma, 1 umol/L, 37° C., incubation time 120 min
Method: (§1) For test compounds, the decrease rate of the test compounds and the conversion rate thereof to 2-acetylnaphtho[2,3-b]furan-4,9-dione in human plasma, CD1 mouse plasma, and pH 7.4 phosphate buffer solution were measured.
(§2) Test compounds were incubated at the concentration of 1 umol/L in human plasma (cat. no. 12250210, COSMO BIO), CD1 mouse plasma (cat. no. AP3054, KAC), and phosphate buffer solution at 37° C., and removed at predetermined times (0, 5, 10, 30, 60, and 120 minutes). After protein-removing treatment was performed, they are analyzed with LC-MS. It should be noted that the protein-removing treatment used acetonitrile containing: 10% volume of 1 mol/L hydrochloric acid; 1% volume of 46% citric acid; and phenytoin as an internal standard.
(§3) The measurement condition of LC-MS is as described below. LC-MS condition column: Kinetex 2.6 u PFP 100 A 50×2.1 mm Column temperature: 40° C.
(§4) Mobile phase: A: 0.1% formic acid-containing water
(§5) • B: 0.1% formic acid-containing acetonitrile A/B(min): 95/5(0)→5/95(3)→5/95(4)→95/5(4.1)→95/5(6) Flow rate: 0.4 mL/min Detection: ESI (positive mode) Injection volume: 10 uL
In the same way as Example 6, the incubation time was set as 120 minutes later, and the conversion rate of each of various test compounds to 2-acetylnaphtho[2,3-b]furan-4,9-dione in human plasma, CD1 mouse plasma, and pH 7.4 phosphate buffer solution was measured.

[2] = Solubility test; conditions: for Solubility in pH 2.0 buffer solution: 50 mmol/L glycine buffer solution (pH 2.0), room temperature, 24 hours shaking
Method: A water-soluble prodrug was added into 50 mmol/L glycine buffer solution (pH 2.0). After shaking at room temperature for 24 hours, the mixture was filtered through a membrane filter, and then the filtrate was measured with HPLC.
The measurement condition of HPLC is as described below. HPLC condition column: Acquity UPLC BEH C18, 1.7 um, 50×2.1 mm
Mobile phase: A: 0.1% trifluoroacetic acid-containing water

[3] = Evaluation of a conversion rate to 2-acetylnaphtho[2,3-b]furan-4,9-dione in pH 7.4 phosphate buffer solution; type: physicochemical; conditions: Phosphate buffer solution (pH 7.4), 1 umol/L, 37° C., incubation time 120 min
Method: as §1, §2, §3, §4, §5
Measurement values are calculated from the peak area ratio in LC-MS between an internal standard material, phenytoin and an active form, 2-acetylnaphtho[2,3-b]furan-4,9-dione, and are expressed in %.
In the same way as Example 6, the incubation time was set as 120 minutes later, and the conversion rate of each of various test compounds to 2-acetylnaphtho[2,3-b]furan-4,9-dione in human plasma, CD1 mouse plasma, and pH 7.4 phosphate buffer solution was measured. A series of the present compounds were confirmed to be converted to 2-acetylnaphtho[2,3-b]furan-4,9-dione in pH 7.4 phosphate buffer solution in addition to human plasma and CD1 mouse plasma. Therefore, a series of the test compounds of the present invention were confirmed to be converted to the activated form via a route other than an enzymatic conversion.

Compound | % Measurement value (conversion rate to 2-acetylnaphtho[2,3-b]furan-4,9-dione) [1] | Solubility in pH 2.0 buffer solution [2] | % Measurement value (conversion rate to 2-acetylnaphtho[2,3-b]furan-4,9-dione) [3] | solubility at 24 hours ([2]; pH 2, aqueous buffer, thermodynamic from solid) | % Measurement value (conversion rate to 2-acetylnaphtho[2,3-b]furan-4,9-dione) ([3]; monohydrate)
COC(=O)NCCNCCNC(=O)Oc1c2ccccc2c(O)c2cc(C(C)=O)oc12.Cl [Example 89] | 63% | >5.0 mg/mL | 58% |  | 
CC(=O)c1cc2c(OC(=O)NCCCNCC(=O)N3CCC3)c3ccccc3c(OC(=O)NCCCNCC(=O)N3CCC3)c2o1.Cl.Cl [Example 63] | 59% | >5.0 mg/mL | 51% |  | 
COC(=O)NCCNCCCNC(=O)Oc1c2ccccc2c(OC(=O)NCCCNCCNC(=O)OC)c2oc(C(C)=O)cc12.Cl.Cl [Example 68] | 73% | >5.0 mg/mL | 59% |  | 
CC(=O)c1cc2c(OC(=O)NCCNCC(=O)N3CCC3)c3ccccc3c(OC(=O)NCCNCC(=O)N3CCC3)c2o1.Cl.Cl [Example 62] | 65% | >5.0 mg/mL | 37% |  | 
CC(=O)c1cc2c(O)c3ccccc3c(OC(=O)NCCNCC(=O)N3CCC3)c2o1.Cl [Example 85] | 38% | 4.1 mg/mL | 37% |  | 
CC(=O)c1cc2c(OC(=O)NCCCNCCN)c3ccccc3c(OC(=O)NCCCNCCN)c2o1.Cl.Cl [Example 52] | 78% | >5.0 mg/mL | 55% |  | 
CCC(NCCNC(=O)Oc1c2ccccc2c(OC(=O)NCCNC(CC)C(=O)O)c2oc(C(C)=O)cc12)C(=O)O.Cl.Cl (centres unmarked) [Example 51] | 70% | 0.1 mg/mL | 55% |  | 
CC(=O)c1cc2c(O)c3ccccc3c(OC(=O)NCCNCCOC(N)=O)c2o1.Cl [Example 87] | 38% | 4.0 mg/mL | 36% |  | 
CC(=O)c1cc2c(OC(=O)NCCNCCS(=O)(=O)N3CCCCC3)c3ccccc3c(OC(=O)NCCNCCS(=O)(=O)N3CCCCC3)c2o1.Cl.Cl [Example 56] | 63% | 3.3 mg/mL | 30% |  | 
CC(=O)c1cc2c(OC(=O)NC3CCNC3)c3ccccc3c(OC(=O)NC3CCNC3)c2o1.Cl.Cl (centres unmarked) [Example 48] | 71% | >5.0 mg/mL | 59% |  | 
CC(=O)c1cc2c(O)c3ccccc3c(OC(=O)NCCCNCCS(C)(=O)=O)c2o1.Cl [Example 82] | 74% | 0.1 mg/mL | 25% |  | 
CC(=O)c1cc2c(OC(=O)NCCNCC(F)(F)F)c3ccccc3c(OC(=O)NCCNCC(F)(F)F)c2o1.Cl.Cl [Example 45] | 84% | >5.0 mg/mL | 48% |  | 
CC(=O)c1cc2c(O)c3ccccc3c(OC(=O)NCCNCCS(=O)(=O)N(C)C)c2o1.Cl [Example 79] | 71% | 0.3 mg/mL | 39% |  | 
CC(=O)c1cc2c(OC(=O)NCCNC(C)C(=O)O)c3ccccc3c(OC(=O)NCCNC(C)C(=O)O)c2o1.Cl.Cl (centres unmarked) [Example 50] | 96% | 0.1 mg/mL | 61% |  | 
CC(=O)c1cc2c(OC(=O)NCCCNCCOC(N)=O)c3ccccc3c(OC(=O)NCCCNCCOC(N)=O)c2o1.Cl.Cl [Example 66] | 59% | >5.0 mg/mL | 44% |  | 
CC(=O)c1cc2c(OC(=O)NCCNCCCC(=O)O)c3ccccc3c(OC(=O)NCCNCCCC(=O)O)c2o1.Cl.Cl [Example 42] | 69% | >5.0 mg/mL | 54% |  | 
CC(=O)c1cc2c(OC(=O)NCCNCCF)c3ccccc3c(OC(=O)NCCNCCF)c2o1.Cl.Cl [Example 43] | 81% | >5.0 mg/mL | 63% |  | 
CC(=O)c1cc2c(OC(=O)NCCNCCS(=O)(=O)N(C)C)c3ccccc3c(OC(=O)NCCNCCS(=O)(=O)N(C)C)c2o1.Cl.Cl [Example 57] | 68% | >5.0 mg/mL | 34% |  | 
COC(=O)NCCNCCNC(=O)Oc1c2ccccc2c(OC(=O)NCCNCCNC(=O)OC)c2oc(C(C)=O)cc12.Cl.Cl [Example 67] | 78% | >5.0 mg/mL | 60% |  | 
CC(=O)c1cc2c(OC(=O)NCCNCCS(C)(=O)=O)c3ccccc3c(OC(=O)NCCNCCS(C)(=O)=O)c2o1.Cl.Cl [Example 61] | 87% | 2.5 mg/mL | 55% |  | 
CC(=O)c1cc2c(OC(=O)NCCCNCCS(C)(=O)=O)c3ccccc3c(OC(=O)NCCCNCCS(C)(=O)=O)c2o1.Cl.Cl [Example 60] | 68% | >5.0 mg/mL | 39% |  | 
CC(=O)c1cc2c(O)c3ccccc3c(OC(=O)NCCCNCCOC(N)=O)c2o1.Cl [Example 88] | 27% | 3.2 mg/mL | 26% |  | 
COC(=O)OCCNCCCNC(=O)Oc1c2ccccc2c(O)c2cc(C(C)=O)oc12.Cl [Example 92] | 34% | >5.0 mg/mL | 26% |  | 
CC(=O)c1cc2c(O)c3ccccc3c(OC(=O)NCCCNCC(=O)NCC(=O)O)c2o1.Cl [Example 84] | 42% | >5.0 mg/mL | 31% |  | 
COC(=O)OCCNCCNC(=O)Oc1c2ccccc2c(O)c2cc(C(C)=O)oc12.Cl [Example 91] | 61% | 3.6 mg/mL | 45% |  | 
Dimethyl 4,4′-((((2-acetylnaphtho[2,3-b]furan-4,9-diyl)bis(oxy))bis(carbonyl))bis-(azanediyl))(2S,2′S)-bis(2-aminobutanoate)dimethanesulfonate salt [Example 104] | 82% | >5.0 mg/mL | 57% |  | 
CC(=O)c1cc2c(OC(=O)NCCNCCN)c3ccccc3c(OC(=O)NCCNCCN)c2o1.Cl.Cl [Example 46] | 59% | >5.0 mg/mL | 54% |  | 
COC(=O)[C@@H](N)CCNC(=O)Oc1c2ccccc2c(OC(=O)NCC[C@H](N)C(=O)OC)c2oc(C(C)=O)cc12 [Example 105, Dimethyl 4,4′-((((2-acetylnaphtho[2,3-b]furan-4,9-diyl)bis(oxy))bis(carbonyl))bis(azanediyl))(2S,2′S)-bis(2-aminobutanoate)ditoluenesulfonate salt monohydrate] |  |  |  | > 5000 µg/mL | 65%
